Experiment [1] has as its target menin/MLL (terbium chelate-labeled menin, FITC-MBM1 peptide) (Homo sapiens (Human), UniProt O00255). In words: Menin/MLL homogenous time-resolved fluorescence (HTRF) assay.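 Note: IC50 from percent inhibition of HTRF signal, normalized between wells without competitor and wells with a saturating competitor that displaces FITC-MBM1 from His-tagged menin.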 Type of experiment: binding.
For a further experiment, the system named is MOLM14 cells. In words: Proliferation assay (spheroid growth, 8 days), MOLM14.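 Note: spheroid size read as confluence by live-cell imaging, compounds added at a range of concentrations with 0.3% DMSO, DMSO-treated wells = 0%, highest reference dose = low control.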 Type of experiment: cell-based, human. Particulars: MOLM14, 8 days, read-out: spheroid assay_OneTime MOLM14 IC50.
The subject of a further experiment is KO-52 cells. Description: Proliferation assay (spheroid growth, 8 days), KO-52 control cell line. Type of experiment: cell-based, human. Particulars: read-out: spheroid assay_OneTime KO-52 IC50. As to the method: (§1) The anti-proliferative effect of menin/MLL protein/protein interaction inhibitor test compounds was assessed in human leukemia cell lines. The cell line MOLM14 harbors a MLL translocation and expresses the MLL fusion protein MLL-AF9, respectively, as well as the wildtype protein from the second allele. OCI-AML3 cells that carry the NPM1c gene mutation were also tested. […] KO-52 was used as a control cell line containing two MLL (KMT2A) wildtype alleles in order to exclude compounds that display general cytotoxic effects.
(§2) KO-52 and OCI-AML3 cell lines were propagated in alpha-MEM (Sigma Aldrich) supplemented with 20% heat-inactivated fetal bovine serum (HyClone), 2 mM L-glutamine (Sigma Aldrich) and 50 μg/ml gentamycin (Gibco).
(§3) In order to assess the anti-proliferative effects, 200 MOLM14 cells, 200 OCI-AML3 cells or 300 KO-52 cells were seeded in 200 μl media per well in […] round bottom, ultra-low attachment plates (Costar, catalogue number 7007). Cell seeding numbers were chosen based on growth curves to ensure linear growth throughout the experiment. Test compounds were added at different concentrations and the DMSO content was normalized to 0.3%. Cells were incubated for 8 days at 37° C. and 5% CO2. Spheroid like growth was measured in real-time by live-cell imaging (IncuCyteZOOM, Essenbio, 4× objective) acquiring images at day 8. Confluence (%) as a measure of spheroid size was determined using an integrated analysis tool.
(§4) In order to determine the effect of the test compounds over time, the confluence in each well as a measure of spheroid size, was calculated. Confluence of the highest dose of a reference compound was used as baseline for the LC (Low control) and the confluence of DMSO treated cells was used as 0% cytotoxicity (High Control, HC).
(§5) GraphPad Prism(version 7.00) was used to calculate the IC50. Dose-response equation was used for the plot of % Effect vs Log 10 compound concentration with a variable slope and fixing the maximum to 100% and the minimum to 0%.

The next experiment has as its system MEIS1 mRNA. Description: MEIS1 mRNA expression assay (Quantigene Singleplex) in MOLM14 cells.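 Note: MEIS1 transcript levels read by probe hybridization and normalized to RPL28 mRNA, with IC50 fitted to fold changes across a rising compound concentration series.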 Type of experiment: cell-based, human. Particulars: 48 hours incubation.
The next experiment has as its system OCI-AML3 cells. In words: Proliferation assay (spheroid growth, 8 days), OCI-AML3. Particulars: Homo sapiens, OCI-AML-3, […], OCI-AML3, 8 days. Type of experiment: cell-based, human. As to the method:
as §1, §2, §3, §4, §5

[2] abbreviates: HTRF-30 min incubation IC50, 30 min incubation.
Setting [3] is: read-out: HTRF-30 min incubation IC50, 30 min incubation.

Structures can show the parent of a compound that is named as a salt. Where two headings read alike, the source gives them in different places.

menin/MLL (terbium chelate-labeled menin, FITC-MBM1 peptide), sequence (O00255 other isoform, or with tags, fused parts or gaps): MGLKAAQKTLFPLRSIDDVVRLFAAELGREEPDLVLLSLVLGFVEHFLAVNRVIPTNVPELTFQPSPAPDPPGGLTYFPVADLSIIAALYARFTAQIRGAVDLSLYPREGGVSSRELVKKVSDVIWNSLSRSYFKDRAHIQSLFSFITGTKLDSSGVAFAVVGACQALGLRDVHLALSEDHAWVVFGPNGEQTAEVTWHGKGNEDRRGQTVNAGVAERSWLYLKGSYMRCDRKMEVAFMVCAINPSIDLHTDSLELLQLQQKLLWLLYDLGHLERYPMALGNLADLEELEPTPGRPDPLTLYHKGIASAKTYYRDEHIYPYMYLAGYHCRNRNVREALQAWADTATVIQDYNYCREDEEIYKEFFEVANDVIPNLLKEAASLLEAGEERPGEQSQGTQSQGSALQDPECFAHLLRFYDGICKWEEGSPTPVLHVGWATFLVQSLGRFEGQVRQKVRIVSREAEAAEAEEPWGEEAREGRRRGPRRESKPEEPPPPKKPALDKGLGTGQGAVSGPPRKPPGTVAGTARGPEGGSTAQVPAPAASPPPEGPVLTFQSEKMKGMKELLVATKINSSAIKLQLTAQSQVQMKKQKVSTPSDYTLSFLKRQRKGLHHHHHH

`CCN(C(=O)c1cc(F)ccc1Oc1nncnc1N1CCC2(C1)CN([C@@H](CCC(C)(C)NC)C(C)C)C2)C(C)C` (single isomer, unassigned) [Compound 36, (*S)-2-((5-(2-(2,6-dimethyl-6-(methylamino)heptan-3-yl)-2,6-diazaspiro[3.4]octan-6-yl)-1,2,4-triazin-6-yl)oxy)-N-ethyl-5-fluoro-N-isopropylbenzamide hydrochloride]: the IC50 (as a rule, the midpoint of a concentration-inhibition curve) is 2.6 nM in experiment [1] (setting [2]); greater than 940 nM in the experiment with MOLM14 cells (Homo sapiens, MOLM-14, […]); greater than 15000 nM in the experiment with KO-52 cells (Homo sapiens, […]); greater than 1000 nM in the experiment with MEIS1 mRNA (Homo sapiens, MOLM-14, 48 h).
Regarding `CC(C)[C@H](CCC(C)(C)N)N1CC2(CCN(c3ncnnc3Oc3ccc(F)cc3-c3cncnc3C3CC3)C2)C1` (single isomer, unassigned) [Compound 38, (*S)-5-(6-(6-(2-(4-cyclopropylpyrimidin-5-yl)-4-fluorophenoxy)-1,2,4-triazin-5-yl)-2,6-diazaspiro[3.4]octan-2-yl)-2,6-dimethylheptan-2-amine], the IC50 in experiment [1] (setting [2]) is 1.16 nM; with MOLM14 cells (Homo sapiens, MOLM-14, […]), 520 nM; in the experiment on KO-52 cells (Homo sapiens, […]), greater than 15000 nM; in the experiment with MEIS1 mRNA (Homo sapiens, MOLM-14, 48 h) it was roughly 1100 nM.
Turning to `CC(C)[C@H](CCC(N)=O)N1CC2(CCN(c3ncnnc3Oc3ccc(F)cc3-c3cncnc3C3CC3)C2)C1` (single isomer, unassigned) [Compound 44], the IC50 in experiment [1] (setting [2]) was 46.6 nM; with MOLM14 cells (Homo sapiens, MOLM-14, […]), greater than 3750 nM; in the experiment with KO-52 cells (Homo sapiens, […]), greater than 15000 nM; in the experiment with MEIS1 mRNA (Homo sapiens, MOLM-14, 48 h), greater than 2500 nM.
`CNC(=O)CC[C@H](C(C)C)N1CC2(CCN(c3ncnnc3Oc3ccc(F)cc3-c3cncnc3C3CC3)C2)C1` (single isomer, unassigned) [Compound 46, (*R)-4-(6-(6-(2-(4-cyclopropylpyrimidin-5-yl)-4-fluorophenoxy)-1,2,4-triazin-5-yl)-2,6-diazaspiro[3.4]octan-2-yl)-N,5-dimethylhexanamide]: the 50% inhibitory concentration (IC50) was 59.7 nM in experiment [1] (setting [3]), greater than 3750 nM in the experiment with MOLM14 cells, greater than 15000 nM in the experiment with KO-52 cells and greater than 2500 nM in the experiment with MEIS1 mRNA.
`CCN(C(=O)c1cc(F)ccc1Oc1nncnc1N1CCC2(C1)CN([C@@H](CCCO)C(C)C)C2)C(C)C` (single isomer, unassigned) [Compound 48, (*S)—N-ethyl-5-fluoro-2-((5-(2-(6-hydroxy-2-methylhexan-3-yl)-2,6-diazaspiro[3.4]octan-6-yl)-1,2,4-triazin-6-yl)oxy)-N-isopropylbenzamide]: the IC50 in experiment [1] (setting [3]) was 70.4 nM; with MOLM14 cells it was greater than 940 nM; with KO-52 cells it was greater than 15000 nM; in the experiment on MEIS1 mRNA, greater than 1000 nM.
`CCN(C(=O)c1cc(F)ccc1Oc1nnccc1N1CCC2(C1)CN([C@@H](CCCN(C)CCOC)C(C)C)C2)C(C)C` (single isomer, unassigned) [Compound 84, (*S)—N-ethyl-5-fluoro-N-isopropyl-2-((4-(2-(6-((2-methoxyethyl)(methyl)amino)-2-methylhexan-3-yl)-2,6-diazaspiro[3.4]octan-6-yl)pyridazin-3-yl)oxy)benzamide oxalate]: the IC50 with MOLM14 cells (Homo sapiens, MOLM-14, […]) is greater than 940 nM; in the experiment with OCI-AML3 cells, 7170 nM; in the experiment on KO-52 cells (Homo sapiens, […]), greater than 15000 nM; with MEIS1 mRNA (Homo sapiens, MOLM-14, 48 h), greater than 1000 nM.
Take `CCN(C(=O)c1cc(F)ccc1Oc1nncnc1N1CCC2(C1)CN([C@H](CCCN(C)CC(C)OC)C(C)C)C2)C(C)C` (single isomer, unassigned) [Compound 254, oxalate]: the IC50 in experiment [1] (setting [2]) was 4.16 nM; with MOLM14 cells (Homo sapiens, MOLM-14, […]) it was 590 nM; with OCI-AML3 cells it was 4690 nM; in the experiment on KO-52 cells (Homo sapiens, […]) it was greater than 15000 nM.
For the compound `CCN(C(=O)c1cc(F)ccc1Oc1nncnc1N1CCC2(C1)CN([C@@H](CCCN)C(C)C)C2)C(C)C` [Compound 2, (S)-2-((5-(2-(6-amino-2-methylhexan-3-yl)-2,6-diazaspiro[3.4]octan-6-yl)-1,2,4-triazin-6-yl)oxy)-N-ethyl-5-fluoro-N-isopropylbenzamide formate], the IC50 in experiment [1] (setting [2]) was 3.31 nM; in the experiment with MOLM14 cells (Homo sapiens, MOLM-14, […]) it was 2220 nM; with KO-52 cells (Homo sapiens, […]) it was greater than 15000 nM; in the experiment with MEIS1 mRNA (Homo sapiens, MOLM-14, 48 h), greater than 2500 nM.
In the case of `CCN(C(=O)c1cc(F)ccc1Oc1nncnc1N1CCC2(C1)CN([C@@H](CCCN(C)C)C(C)C)C2)C(C)C` [Compound 5, (S)-2-((5-(2-(6-(dimethylamino)-2-methylhexan-3-yl)-2,6-diazaspiro[3.4]octan-6-yl)-1,2,4-triazin-6-yl)oxy)-N-ethyl-5-fluoro-N-isopropylbenzamide formate], the IC50 was 2.26 nM in experiment [1] (setting [2]); 840 nM in the experiment with MOLM14 cells (Homo sapiens, MOLM-14, […]); greater than 15000 nM with KO-52 cells (Homo sapiens, […]); roughly 990 nM with MEIS1 mRNA (Homo sapiens, MOLM-14, 48 h).
For `CCN(C(=O)c1cc(F)ccc1Oc1nncnc1N1CCC2(C1)CN([C@@H](CCCNC(C)=O)C(C)C)C2)C(C)C` [Compound 7, (S)-2-((5-(2-(6-acetamido-2-methylhexan-3-yl)-2,6-diazaspiro[3.4]octan-6-yl)-1,2,4-triazin-6-yl)oxy)-N-ethyl-5-fluoro-N-isopropylbenzamide], in that order: 86.2 nM, greater than 3750 nM, greater than 15000 nM and greater than 2500 nM.
Taken in the same sequence, the figures for `CCN(C(=O)c1cc(F)ccc1Oc1nncnc1N1CCC2(C1)CN([C@H](CCCN(C)CC(F)F)C(C)C)C2)C(C)C` [Compound 16, (R)-2-((5-(2-(6-((2,2-difluoroethyl)(methyl)amino)-2-methylhexan-3-yl)-2,6-diazaspiro[3.4]octan-6-yl)-1,2,4-triazin-6-yl)oxy)-N-ethyl-5-fluoro-N-isopropylbenzamide] were 1.85 nM, 370 nM, 10500 nM and roughly 670 nM.
Taken in the same sequence, the figures for `CCN(C(=O)c1cc(F)ccc1Oc1nncnc1N1CCC2(C1)CN([C@H](CCCN(C)CC(F)(F)F)C(C)C)C2)C(C)C` [Compound 21, (R)-N-ethyl-5-fluoro-N-isopropyl-2-((5-(2-(2-methyl-6-(methyl(2,2,2-trifluormethyl)amino)hexan-3-yl)-2,6-diazaspiro[3.4]octan-6-yl)-1,2,4-triazin-6-yl)oxy)benzamide] were 10.4 nM, greater than 940 nM, greater than 15000 nM and greater than 1000 nM.
Regarding `CCN(C(=O)c1cc(F)ccc1Oc1nncnc1N1CCC2(C1)CN([C@H](CCCN(C)CCOC)C(C)C)C2)C(C)C` [Compound 27, (R)-N-ethyl-5-fluoro-N-isopropyl-2-((5-(2-(6-((2-methoxyethyl)(methyl)amino)-2-methylhexan-3-yl)-2,6-diazaspiro[3.4]octan-6-yl)-1,2,4-triazin-6-yl)oxy)benzamide], the IC50 stood at 91 nM in the experiment with OCI-AML3 cells and 6850 nM with KO-52 cells (Homo sapiens, […]).
Take `CCN(C(=O)c1cc(F)ccc1Oc1nncnc1N1CCC2(C1)CN([C@@H](CCCN(C)CCOC)C(C)C)C2)C(C)C` [Compound 28, (S)—N-ethyl-5-fluoro-N-isopropyl-2-((5-(2-(6-((2-methoxyethyl)(methyl)amino)-2-methylhexan-3-yl)-2,6-diazaspiro[3.4]octan-6-yl)-1,2,4-triazin-6-yl)oxy)benzamide]: the IC50 in the experiment with MOLM14 cells (Homo sapiens, MOLM-14, […]) was 600 nM; with OCI-AML3 cells, 1360 nM; in the experiment on KO-52 cells (Homo sapiens, […]) it was greater than 15000 nM.
With `CCN(C(=O)c1cc(F)ccc1Oc1nncnc1N1CCC2(C1)CN(C(CCNC(C)=O)C(C)C)C2)C(C)C` (stereo not shown) [Compound 29], the IC50 is 2.42 nM in experiment [1] (setting [2]); 970 nM with MOLM14 cells (Homo sapiens, MOLM-14, […]); greater than 15000 nM in the experiment on KO-52 cells (Homo sapiens, […]); roughly 2250 nM with MEIS1 mRNA (Homo sapiens, MOLM-14, 48 h).
As to `CCN(C(=O)c1cc(F)ccc1Oc1nncnc1N1CCC2(C1)CN([C@H](CCCN(CCOC)CCOC)C(C)C)C2)C(C)C` [Compound 90, (R)-2-((5-(2-(6-(bis(2-methoxyethyl)amino)-2-methylhexan-3-yl)-2,6-diazaspiro[3.4]octan-6-yl)-1,2,4-triazin-6-yl)oxy)-N-ethyl-5-fluoro-N-isopropylbenzamide formate], the IC50 came to 0.16 nM in experiment [1] (setting [2]); 40 nM with MOLM14 cells (Homo sapiens, MOLM-14, […]); 190 nM in the experiment on OCI-AML3 cells; 1000 nM in the experiment on KO-52 cells (Homo sapiens, […]).
Take `CCN(C(=O)c1cc(F)ccc1Oc1nnc(Cl)nc1N1CCC2(C1)CN([C@H](CCCN(C)CCOC)C(C)C)C2)C(C)C` [Compound 394, (R)-2-((3-chloro-5-(2-(6-((2-methoxyethyl)(methyl)amino)-2-methylhexan-3-yl)-2,6-diazaspiro[3.4]octan-6-yl)-1,2,4-triazin-6-yl)oxy)-N-ethyl-5-fluoro-N-isopropylbenzamide fumarate]: the IC50 with MOLM14 cells (Homo sapiens, MOLM-14, […]) was 110 nM; in the experiment on OCI-AML3 cells, 330 nM; in the experiment with KO-52 cells (Homo sapiens, […]) it was greater than 15000 nM.

The values above are taken from patent US12473295B2, “Substituted straight chain spiro derivatives” (Janssen Pharmaceutica NV, priority 2019, dated 2025).
